From publication PMC9115112, “A2B adenosine receptor antagonists rescue lymphocyte activity in adenosine-producing patient-derived cancer models” (Journal for Immunotherapy of Cancer, 2022)

Key:
Assay type in all cases: cell-based, human
[1] = system: healthy donor PBMCs; assay: Cell viability of healthy donor PBMCs on antagonist treatment (data not shown)
Protocol: Supplementary methods and results
Annexin V viability analysis
Cells were washed with Annexin V binding buffer (BioLegend) then incubated with Alexa Fluor 647 – conjugated Annexin V (BioLegend) at room temperature for 15 minutes. For A2AAR and A2BAR expression profiling, cells were washed with BD Perm/Wash then incubated with BD CytoFix/CytoPerm at 4°C for 20 minutes. The cells were then washed and stained with PE-conjugated A2AAR mouse antibody (Clone 7F6-G5-A2; Santa Cruz Biotechnology, sc-32261 PE) at room temperature for 30 minutes. After washing twice to remove most A2AAR antibody possible, goat A2BAR primary antibody (Clone PA5-18422; Thermo Fisher Scientific) was incubated at 4°C overnight. The cells were subsequently washed and stained with Alexa Fluor 488-conjugated anti-goat secondary antibody (Thermo Fisher Scientific) at room temperature for 1 hour. The cells were then washed with FC buffer twice before acquiring on NovoCyte. A2AAR and A2BAR fluorescence minus one (FMO) staining were also prepared. For differential expression of ADO ectonucleotidases, day five patient-derived sarcoma spheroids were digested and stained for CD45, CD73 and CD39 using the same procedures as cell surface staining (Supplementary Table 1).
Public database bioinformatic analysis […]

[2] = system: healthy donor T cells in MPNST patient-derived sarcoma spheroid; assay: Proliferation assay with CD73-expressing patient-derived sarcoma (MPNST) spheroid; details: antagonist 12 µM, 3 days, endogenous adenosine, n=5 healthy donors
Protocol: A malignant peripheral nerve sheath tumor (MPNST) patient-derived sarcoma cell line was used to grow spheroid by seeding 1×10^4 cells per well in a 96-well ultra-low attachment plate (Thermo Fisher Scientific) with DMEM-F12 media containing 20% FBS and 1% PS for 5 days. 1×10^5 CSFE-labeled healthy PBMCs, ratio of 10:1, were added to the CD73 expressing, adenosine-producing spheroid at day five. Similar to the proliferation assay with exogenous ADO, CD3/CD28 beads at 1:4 ratio and IL-2 at 100 IU/mL were added. A2BAR antagonism treatment at 12 μM was added at the same day.
Figure 5 Rescue of lymphocyte proliferation in sarcoma spheroids by A2BAR antagonism. Relative proliferation of: (A) CD45RA- CD4 T cells, (B) CD45RA+CD4 T cells, (C) CD45RA- CD8 T cells and (D) CD45RA+ CD8 T cells after antagonist 12 µM treatment for 3 days in MPNST patient-derived sarcoma spheroid. (n=5 healthy donors) Box plots with minimum, first quartile, median, third quartile, and maximum are presented. Unpaired and non-parametric statistical analysis—Mann-Whitney test was performed against untreated control with *p<0.05, **p<0.01, ***p<0.001, and ****p<0.0001. (E) Representative CSFE dilution of CD45RA+ CD8 T cells. CD45RA expression differentiates naïve and effector T cells from central and effector memory T cells. MPNST, malignant peripheral nerve sheath tumors; UPS, undifferentiated pleomorphic sarcoma.

[3] = system: sarcoma TILs against autologous tumor cells; assay: Chromium (51Cr) release cytotoxicity assay, sarcoma TILs; details: synthetic ADO, 24 hours
Protocol: Chromium (51Cr) release cytotoxicity assay
Chromium (51Cr) release assay was used to measure the autologous TILs-mediated cytotoxicity against the established patient-derived breast and […] cell lines. Briefly, breast and sarcoma tumor cells were labelled with 51Cr (PerkinElmer) as target cells and seeded on 96-well V-bottom plate (Corning) at 5 000cells/well. Effector TILs were added at the indicated Effector: Target (E:T) ratios. The supernatants were collected carefully into LUMA plates (PerkinElmer) after 24 and 48 hours of co-culture. After drying overnight, radioactivity of the plate was read with MicroBeta2 (PerkinElmer).
Relative adenosine production assay
An ectonucleotidase CD73 assay was optimized to measure the relative ADO production based on competitive AMP blockade and presence of CD73+ cells. Day five patient-derived sarcoma spheroids were digested and split into triplicates in X-VIVO20 and 1% PS culture media with an excessive amount of AMP at 0.4mM (Sigma-Aldrich) incubated for 30 minutes.
After 1500 RPM was applied for three minutes, 25 μL supernatant were removed and mixed with 25 μL of 200 μM ATP (Sigma-Aldrich) in the same media. 25 μL of this mixture was added to a white opaque OptiPlate (PerkinElmer) containing 25 μL Cell-Titer Glo reagent (Promega, US). Relative luminescence unit (RLU) can be read on SPARK 10M plate reader with an integration time of 100ms. […]

Compound | Toxicity / cell viability [1] | Rescue of naïve and effector (CD45RA+) CD8 T cell proliferation in adenosine-producing sarcoma spheroids [2] | Rescue of killing in sarcoma TILs against autologous tumor cells [3]
CC1=C(C(=O)OC(C)C)C(c2ccco2)n2c(nc3ccccc32)N1 (stereo not drawn) [ISAM-140, isopropyl 4-(furan-2-yl)−2-methyl-1,4-dihydrobenzo[4 5] imidazo[1,2 a]pyrimidine-3-carboxylate] | non-toxic and even improved cell viability |  | 
CC1=C(C(=O)OC(C)C)C(c2ccco2)n2c(nc3ccccc32)N1Cc1ccccc1F (stereo not drawn) [ISAM-R56A] |  | significantly rescued | also rescued killing
